These are literature values, as cited in patent US20040248901A1, “Compositions containing itraconazole and their preparation methods” (priority 2001, published 2004).

The conditions of this series: background art.

Structures are written as SMILES.

For the molecule `CCC(C)n1ncn(-c2ccc(N3CCN(c4ccc(OCC5COC(Cn6cncn6)(c6ccc(Cl)cc6Cl)O5)cc4)CC3)cc2)c1=O` (mixture of isomers) [itraconazole, (±)-cis-4-[4-[4-[4-[[2-(2,4-dichlorophenyl)-2-(1H-1,2,4-triazol-1-ylmethyloxolan-4-yl]methoxy]phenyl]-1-piperazinyl]phenyl]-2,4-dihydro-2-(1-methylpropyl)-3H-1,2,4-triazol-3-one], the solubility in water was no more than 1 µg/mL.
